Measurements taken from the supplement of paper PMC13207355.

Legend:
Conditions in all cases: exposure time: 72 h
E21 [1] = patient-derived glioblastoma stem cells of mesenchymal subtype; test: phenotypic distance (Euclidean, principal components) from DMSO controls (arbitrary units); higher = stronger morphological change
E31 [2] = patient-derived glioblastoma stem cells of proneural subtype; test: as above
E13 [3] = patient-derived glioblastoma stem cells of classical subtype; test: as above
E57 [4] = patient-derived glioblastoma stem cells of mesenchymal subtype; test: as above
E28 [5] = patient-derived glioblastoma stem cells of classical subtype; test: as above
E34 [6] = patient-derived glioblastoma stem cells of proneural subtype; test: as above
FT3469 [7] = normal neural stem cell line; test: as above
E21 [8] = test: surviving fraction (nuclei count normalised to DMSO); higher = more cells surviving (less toxic)
E31 [9] = test: as above
E13 [10] = test: as above
E57 [11] = test: as above
E28 [12] = test: as above
E34 [13] = test: as above
FT3469 [14] = test: as above
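For phenotypic distance (Euclidean, principal components) from DMSO controls in this document: cell Painting imaging in 384-well plates, CellProfiler features reduced to at least 20 principal components, Euclidean distance versus same-plate DMSO vehicle wells (0.1% v/v), median over six images per well.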
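For surviving fraction (nuclei count normalised to DMSO) in this document: nuclei counted by high-content imaging of Hoechst-stained cells in laminin-coated 384-well plates, relative to 0.1% DMSO vehicle wells, with staurosporine as cell-death control.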

Compound: CC[n+]1c(/C=C/C=C2/N(C)c3ccccc3C2(C)C)sc2ccccc21
- phenotypic distance (E21 [1]; 4.1 nM): 1.08
- phenotypic distance (E21 [1]; 12.3 nM): 1.6
- phenotypic distance (E21 [1]; 37 nM): 2.31
- phenotypic distance (E21 [1]; 111.1 nM): 3.28
- phenotypic distance (E21 [1]; 333.3 nM): 3.93
- phenotypic distance (E21 [1]; 1000 nM): 3.44
- phenotypic distance (E21 [1]; 3000 nM): 2.74
- phenotypic distance (E31 [2]; 4.1 nM): 2.01
- phenotypic distance (E31 [2]; 12.3 nM): 1.15
- phenotypic distance (E31 [2]; 37 nM): 1.51
- phenotypic distance (E31 [2]; 111.1 nM): 1.16
- phenotypic distance (E31 [2]; 333.3 nM): 3.28
- phenotypic distance (E31 [2]; 1000 nM): 4.43
- phenotypic distance (E31 [2]; 3000 nM): 3.86
- phenotypic distance (E13 [3]; 4.1 nM): 1.39
- phenotypic distance (E13 [3]; 12.3 nM): 1.38
- phenotypic distance (E13 [3]; 37 nM): 2.78
- phenotypic distance (E13 [3]; 111.1 nM): 3.54
- phenotypic distance (E13 [3]; 333.3 nM): 3.71
- phenotypic distance (E13 [3]; 1000 nM): 3.71
- phenotypic distance (E13 [3]; 3000 nM): 3.71
- phenotypic distance (E57 [4]; 4.1 nM): 1.08
- phenotypic distance (E57 [4]; 12.3 nM): 0.887
- phenotypic distance (E57 [4]; 37 nM): 1.53
- phenotypic distance (E57 [4]; 111.1 nM): 2.52
- phenotypic distance (E57 [4]; 333.3 nM): 6.37
- phenotypic distance (E57 [4]; 1000 nM): 5.7
- phenotypic distance (E57 [4]; 3000 nM): 7.93
- phenotypic distance (E28 [5]; 4.1 nM): 0.748
- phenotypic distance (E28 [5]; 12.3 nM): 0.775
- phenotypic distance (E28 [5]; 37 nM): 1.34
- phenotypic distance (E28 [5]; 111.1 nM): 1.61
- phenotypic distance (E28 [5]; 333.3 nM): 3.13
- phenotypic distance (E28 [5]; 1000 nM): 2.8
- phenotypic distance (E28 [5]; 3000 nM): 5.04
- phenotypic distance (E34 [6]; 4.1 nM): 1.1
- phenotypic distance (E34 [6]; 12.3 nM): 1.65
- phenotypic distance (E34 [6]; 37 nM): 1.13
- phenotypic distance (E34 [6]; 111.1 nM): 2.37
- phenotypic distance (E34 [6]; 333.3 nM): 2.3
- phenotypic distance (E34 [6]; 1000 nM): 2.55
- phenotypic distance (E34 [6]; 3000 nM): 3.35
- phenotypic distance (FT3469 [7]; 4.1 nM): 1.31
- phenotypic distance (FT3469 [7]; 12.3 nM): 1.56
- phenotypic distance (FT3469 [7]; 37 nM): 1.69
- phenotypic distance (FT3469 [7]; 111.1 nM): 1.86
- phenotypic distance (FT3469 [7]; 333.3 nM): 1.62
- phenotypic distance (FT3469 [7]; 1000 nM): 3.78
- phenotypic distance (FT3469 [7]; 3000 nM): 3.43
- surviving fraction (E21 [8]; 4.1 nM): 0.792
- surviving fraction (E21 [8]; 12.3 nM): 0.825
- surviving fraction (E21 [8]; 37 nM): 0.652
- surviving fraction (E21 [8]; 111.1 nM): 0.54
- surviving fraction (E21 [8]; 333.3 nM): 0.471
- surviving fraction (E21 [8]; 1000 nM): 0.462
- surviving fraction (E21 [8]; 3000 nM): 0.445
- surviving fraction (E31 [9]; 4.1 nM): 1.03
- surviving fraction (E31 [9]; 12.3 nM): 0.703
- surviving fraction (E31 [9]; 37 nM): 0.714
- surviving fraction (E31 [9]; 111.1 nM): 0.446
- surviving fraction (E31 [9]; 333.3 nM): 0.21
- surviving fraction (E31 [9]; 1000 nM): 0.229
- surviving fraction (E31 [9]; 3000 nM): 0.277
- surviving fraction (E13 [10]; 4.1 nM): 0.616
- surviving fraction (E13 [10]; 12.3 nM): 0.567
- surviving fraction (E13 [10]; 37 nM): 0.47
- surviving fraction (E13 [10]; 111.1 nM): 0.362
- surviving fraction (E13 [10]; 333.3 nM): 0.403
- surviving fraction (E13 [10]; 1000 nM): 0.361
- surviving fraction (E13 [10]; 3000 nM): 0.381
- surviving fraction (E57 [11]; 4.1 nM): 0.878
- surviving fraction (E57 [11]; 12.3 nM): 0.881
- surviving fraction (E57 [11]; 37 nM): 0.793
- surviving fraction (E57 [11]; 111.1 nM): 0.614
- surviving fraction (E57 [11]; 333.3 nM): 0.337
- surviving fraction (E57 [11]; 1000 nM): 0.324
- surviving fraction (E57 [11]; 3000 nM): 0.294
- surviving fraction (E28 [12]; 4.1 nM): 0.916
- surviving fraction (E28 [12]; 12.3 nM): 0.86
- surviving fraction (E28 [12]; 37 nM): 0.707
- surviving fraction (E28 [12]; 111.1 nM): 0.596
- surviving fraction (E28 [12]; 333.3 nM): 0.429
- surviving fraction (E28 [12]; 1000 nM): 0.42
- surviving fraction (E28 [12]; 3000 nM): 0.307
- surviving fraction (E34 [13]; 4.1 nM): 0.967
- surviving fraction (E34 [13]; 12.3 nM): 0.902
- surviving fraction (E34 [13]; 37 nM): 0.834
- surviving fraction (E34 [13]; 111.1 nM): 0.572
- surviving fraction (E34 [13]; 333.3 nM): 0.552
- surviving fraction (E34 [13]; 1000 nM): 0.591
- surviving fraction (E34 [13]; 3000 nM): 0.516
- surviving fraction (FT3469 [14]; 4.1 nM): 0.855
- surviving fraction (FT3469 [14]; 12.3 nM): 0.668
- surviving fraction (FT3469 [14]; 37 nM): 0.696
- surviving fraction (FT3469 [14]; 111.1 nM): 0.627
- surviving fraction (FT3469 [14]; 333.3 nM): 0.645
- surviving fraction (FT3469 [14]; 1000 nM): 0.622
- surviving fraction (FT3469 [14]; 3000 nM): 0.578

Compound: CC(C)CC(=O)N[C@H](C(=O)N[C@H](C(=O)N[C@@H](CC(C)C)[C@@H](O)CC(=O)N[C@@H](C)C(=O)N[C@@H](CC(C)C)[C@@H](O)CC(=O)O)C(C)C)C(C)C [Pepstatin A]
- phenotypic distance (E21 [1]; 4.1 nM): 0.741
- phenotypic distance (E21 [1]; 12.3 nM): 0.806
- phenotypic distance (E21 [1]; 37 nM): 0.616
- phenotypic distance (E21 [1]; 111.1 nM): 0.484
- phenotypic distance (E21 [1]; 333.3 nM): 0.724
- phenotypic distance (E21 [1]; 1000 nM): 0.99
- phenotypic distance (E21 [1]; 3000 nM): 0.905
- phenotypic distance (E31 [2]; 4.1 nM): 0.911
- phenotypic distance (E31 [2]; 12.3 nM): 0.626
- phenotypic distance (E31 [2]; 37 nM): 0.894
- phenotypic distance (E31 [2]; 111.1 nM): 0.552
- phenotypic distance (E31 [2]; 333.3 nM): 0.816
- phenotypic distance (E31 [2]; 1000 nM): 0.799
- phenotypic distance (E31 [2]; 3000 nM): 0.946
- phenotypic distance (E13 [3]; 4.1 nM): 3.07
- phenotypic distance (E13 [3]; 12.3 nM): 0.418
- phenotypic distance (E13 [3]; 37 nM): 0.54
- phenotypic distance (E13 [3]; 111.1 nM): 2.55
- phenotypic distance (E13 [3]; 333.3 nM): 0.565
- phenotypic distance (E13 [3]; 1000 nM): 1.06
- phenotypic distance (E13 [3]; 3000 nM): 1.04
- phenotypic distance (E57 [4]; 4.1 nM): 0.859
- phenotypic distance (E57 [4]; 12.3 nM): 0.774
- phenotypic distance (E57 [4]; 37 nM): 0.554
- phenotypic distance (E57 [4]; 111.1 nM): 0.499
- phenotypic distance (E57 [4]; 333.3 nM): 1.2
- phenotypic distance (E57 [4]; 1000 nM): 1.56
- phenotypic distance (E57 [4]; 3000 nM): 1.57
- phenotypic distance (E28 [5]; 4.1 nM): 0.473
- phenotypic distance (E28 [5]; 12.3 nM): 0.719
- phenotypic distance (E28 [5]; 37 nM): 0.825
- phenotypic distance (E28 [5]; 111.1 nM): 1.73
- phenotypic distance (E28 [5]; 333.3 nM): 0.834
- phenotypic distance (E28 [5]; 1000 nM): 1.64
- phenotypic distance (E28 [5]; 3000 nM): 0.785
- phenotypic distance (E34 [6]; 4.1 nM): 0.998
- phenotypic distance (E34 [6]; 12.3 nM): 1.15
- phenotypic distance (E34 [6]; 37 nM): 0.793
- phenotypic distance (E34 [6]; 111.1 nM): 1.47
- phenotypic distance (E34 [6]; 333.3 nM): 1.37
- phenotypic distance (E34 [6]; 1000 nM): 1.44
- phenotypic distance (E34 [6]; 3000 nM): 0.964
- phenotypic distance (FT3469 [7]; 4.1 nM): 0.569
- phenotypic distance (FT3469 [7]; 12.3 nM): 0.775
- phenotypic distance (FT3469 [7]; 37 nM): 0.359
- phenotypic distance (FT3469 [7]; 111.1 nM): 0.585
- phenotypic distance (FT3469 [7]; 333.3 nM): 0.718
- phenotypic distance (FT3469 [7]; 1000 nM): 1.15
- phenotypic distance (FT3469 [7]; 3000 nM): 0.856
- surviving fraction (E21 [8]; 4.1 nM): 1.08
- surviving fraction (E21 [8]; 12.3 nM): 1.07
- surviving fraction (E21 [8]; 37 nM): 1.01
- surviving fraction (E21 [8]; 111.1 nM): 1.05
- surviving fraction (E21 [8]; 333.3 nM): 0.985
- surviving fraction (E21 [8]; 1000 nM): 0.986
- surviving fraction (E21 [8]; 3000 nM): 0.943
- surviving fraction (E31 [9]; 4.1 nM): 0.988
- surviving fraction (E31 [9]; 12.3 nM): 1.1
- surviving fraction (E31 [9]; 37 nM): 1
- surviving fraction (E31 [9]; 111.1 nM): 0.89
- surviving fraction (E31 [9]; 333.3 nM): 0.936
- surviving fraction (E31 [9]; 1000 nM): 0.912
- surviving fraction (E31 [9]; 3000 nM): 0.801
- surviving fraction (E13 [10]; 4.1 nM): 1.06
- surviving fraction (E13 [10]; 12.3 nM): 1.08
- surviving fraction (E13 [10]; 37 nM): 0.987
- surviving fraction (E13 [10]; 111.1 nM): 0.969
- surviving fraction (E13 [10]; 333.3 nM): 0.939
- surviving fraction (E13 [10]; 1000 nM): 1.07
- surviving fraction (E13 [10]; 3000 nM): 0.973
- surviving fraction (E57 [11]; 4.1 nM): 1.04
- surviving fraction (E57 [11]; 12.3 nM): 1.08
- surviving fraction (E57 [11]; 37 nM): 1.01
- surviving fraction (E57 [11]; 111.1 nM): 1.02
- surviving fraction (E57 [11]; 333.3 nM): 1.11
- surviving fraction (E57 [11]; 1000 nM): 0.978
- surviving fraction (E57 [11]; 3000 nM): 0.901
- surviving fraction (E28 [12]; 4.1 nM): 0.953
- surviving fraction (E28 [12]; 12.3 nM): 1.07
- surviving fraction (E28 [12]; 37 nM): 1.14
- surviving fraction (E28 [12]; 111.1 nM): 1.15
- surviving fraction (E28 [12]; 333.3 nM): 1.06
- surviving fraction (E28 [12]; 1000 nM): 0.989
- surviving fraction (E28 [12]; 3000 nM): 0.92
- surviving fraction (E34 [13]; 4.1 nM): 1.05
- surviving fraction (E34 [13]; 12.3 nM): 1.18
- surviving fraction (E34 [13]; 37 nM): 0.988
- surviving fraction (E34 [13]; 111.1 nM): 1.19
- surviving fraction (E34 [13]; 333.3 nM): 0.959
- surviving fraction (E34 [13]; 1000 nM): 1.03
- surviving fraction (E34 [13]; 3000 nM): 0.906
- surviving fraction (FT3469 [14]; 4.1 nM): 0.981
- surviving fraction (FT3469 [14]; 12.3 nM): 1.14
- surviving fraction (FT3469 [14]; 37 nM): 1.08
- surviving fraction (FT3469 [14]; 111.1 nM): 1.05
- surviving fraction (FT3469 [14]; 333.3 nM): 1.07
- surviving fraction (FT3469 [14]; 1000 nM): 0.993
- surviving fraction (FT3469 [14]; 3000 nM): 1.07
